How the values were obtained:
Test in all cases: combination Emax (second highest fraction inhibited in the dose matrix, 72 h); higher = more inhibition; extreme values may be limits of the assay
[1] = test system: CAPAN-2 (Pancreatic Carcinoma)
Outline: (§1)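 Cell lines grown in DMEM/F12 or RPMI with 10% FBS were plated in 1536-well plates and held 24 hours at 37°C, 5% CO2 before 72 hours of exposure to two-drug dose matrices, with DMSO typically at 0.2%. CellTiter-Glo 2.0 luminescence gave viability, which was converted to inhibition. Vehicle wells were set to 0 and blank wells to 1. Combination Emax is the second-highest inhibition in the matrix, and Bliss excess is the observed combination effect minus the expected EA + EB − EA·EB, where EA and EB are the single-agent effects.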

[2] = test system: SISO (Cervical Carcinoma)
Outline: as §1

[3] = test system: A3-KAW (B-Cell Non-Hodgkin's Lymphoma)
Outline: as §1

[4] = test system: ONS-76 (Other Solid Carcinomas)
Outline: as §1

Hs-445 (Non-Cancerous) = test system: Hs-445 (Non-Cancerous)
Outline: as §1

A498 (Kidney Carcinoma) = test system: A498 (Kidney Carcinoma)
Outline: as §1

[5] = test system: VCaP (Prostate Carcinoma)
Outline: as §1

[6] = test system: JSC-1 (B-Cell Non-Hodgkin's Lymphoma)
Outline: as §1

CAS-1 (Glioblastoma) = test system: CAS-1 (Glioblastoma)
Outline: as §1

[7] = test system: BICR22 (Oral Cavity Carcinoma)
Outline: as §1

[8] = test system: TT (Thyroid Gland Carcinoma)
Outline: as §1

[9] = test system: A549 (Lung Adenocarcinoma)
Outline: as §1

ARH-77 (Non-Cancerous) = test system: ARH-77 (Non-Cancerous)
Outline: as §1

8-MG-BA (Glioblastoma) = test system: 8-MG-BA (Glioblastoma)
Outline: as §1

[10] = test system: PANC-10-05 (Pancreatic Carcinoma)
Outline: as §1

[11] = test system: COR-L311 (Small Cell Lung Carcinoma)
Outline: as §1

IGR-37 (Melanoma) = test system: IGR-37 (Melanoma)
Outline: as §1

NY (Osteosarcoma) = test system: NY (Osteosarcoma)
Outline: as §1

[12] = test system: OS-RC-2 (Kidney Carcinoma)
Outline: as §1

[13] = test system: CAL-29 (Bladder Carcinoma)
Outline: as §1

SMILES	combination Emax [1]	combination Emax [2]	combination Emax [3]	combination Emax [4]	combination Emax (Hs-445 (Non-Cancerous))	combination Emax (A498 (Kidney Carcinoma))	combination Emax [5]	combination Emax [6]	combination Emax (CAS-1 (Glioblastoma))	combination Emax [7]	combination Emax [8]	combination Emax [9]	combination Emax (ARH-77 (Non-Cancerous))	combination Emax (8-MG-BA (Glioblastoma))	combination Emax [10]	combination Emax [11]	combination Emax (IGR-37 (Melanoma))	combination Emax (NY (Osteosarcoma))	combination Emax [12]	combination Emax [13]
Cn1cnc2c(F)c(Nc3ccc(Br)cc3Cl)c(C(=O)NOCCO)cc21 [Selumetinib] + C[C@@H]1COCCN1C2=NC(=NC(=C2)C3(CC3)[S@](=N)(=O)C)C4=C5C=CNC5=NC=C4 [AZD6738] (first compound max 10 µM, 7x7, partner max 10 µM)	0.428	0.43	1	0.771	0.755	0.57	0.303	0.957	0.545	0.722	0.316	0.875	0.946	0.792	0.613	0.32	0.864	0.617	0.304	0.696
CC(=O)Nc1cccc(-n2c(=O)n(C3CC3)c(=O)c3c(Nc4ccc(I)cc4F)n(C)c(=O)c(C)c32)c1 [Trametinib] + Cc1nc(-c2cn3c(n2)-c2ccc(-c4cnn(C(C)(C)C(N)=O)c4)cc2OCC3)n(C(C)C)n1 [Taselisib] (first compound max 1 µM, 7x7, partner max 10 µM)	0.578	0.447	0.726	0.975	0.611	0.861	0.47	0.631	0.957	1	0.666	1	0.776	0.863	0.838	0.751	1	0.747	0.627	0.956
CC1(C)CCC(CN2CCN(c3ccc(C(=O)NS(=O)(=O)c4ccc(NCC5CCOCC5)c([N+](=O)[O-])c4)c(Oc4cnc5[nH]ccc5c4)c3)CC2)=C(c2ccc(Cl)cc2)C1 [Venetoclax] + C1CN(CCC1(C(=O)N[C@@H](CCO)C2=CC=C(C=C2)Cl)N)C3=NC=NC4=C3C=CN4 [Capivasertib] (first compound max 1 µM, 7x7, partner max 3 µM)	0.154	0.106	0.282	0.761	0.751	0.537	0.398	0.161	0.407	0.272	0.681	0.36	0.7	0.26	0.273	0.842	0.556	0.583	0.354	0.277
CC1(C)CCC(CN2CCN(c3ccc(C(=O)NS(=O)(=O)c4ccc(NCC5CCOCC5)c([N+](=O)[O-])c4)c(Oc4cnc5[nH]ccc5c4)c3)CC2)=C(c2ccc(Cl)cc2)C1 [Venetoclax] + C=CCn1c(=O)c2cnc(Nc3ccc(N4CCN(C)CC4)cc3)nc2n1-c1cccc(C(C)(C)O)n1 [AZD1775] (first compound max 1 µM, partner max 1 µM)	0.453	0.694	0.937	0.781	0.99	0.452	0.668	0.888	0.615	0.782	0.673	0.406	0.997	0.755	0.486	0.808	0.852	0.741	0.326	0.483
CC1(C)CCC(CN2CCN(c3ccc(C(=O)NS(=O)(=O)c4ccc(NCC5CCOCC5)c([N+](=O)[O-])c4)c(Oc4cnc5[nH]ccc5c4)c3)CC2)=C(c2ccc(Cl)cc2)C1 [Venetoclax] + CCN(CCO)CCCOc1ccc2c(Nc3cc(CC(=O)Nc4cccc(F)c4)[nH]n3)ncnc2c1 [AZD2811] (first compound max 1 µM, 7x7, partner max 1 µM)	0.204	0.231	0.286	0.698	0.68	0.216	0.226	0.332	0.271	0.492	0.652	0.461	0.703	0.245	0.288	0.927	0.537	0.616	0.232	0.264
CC1(C)CCC(CN2CCN(c3ccc(C(=O)NS(=O)(=O)c4ccc(NCC5CCOCC5)c([N+](=O)[O-])c4)c(Oc4cnc5[nH]ccc5c4)c3)CC2)=C(c2ccc(Cl)cc2)C1 [Venetoclax] + CN(C)CCCOc1ccc(-c2ccc3ncc4c(c3c2)n(C2CCOCC2)c(=O)n4C)cn1 [AZD0156] (first compound max 1 µM, 7x7, partner max 1 µM)	0.199	0.148	0.288	0.725	0.221	0.263	0.196	0.141	0.239	0.337	0.594	0.28	0.297	0.171	0.229	0.604	0.503	0.551	0.249	0.25
CC1(C)CCC(CN2CCN(c3ccc(C(=O)NS(=O)(=O)c4ccc(NCC5CCOCC5)c([N+](=O)[O-])c4)c(Oc4cnc5[nH]ccc5c4)c3)CC2)=C(c2ccc(Cl)cc2)C1 [Venetoclax] + COc1cc(Nc2ncc3c(n2)-c2ccc(Cl)cc2C(c2c(F)cccc2OC)=NC3)ccc1C(=O)O [Alisertib] (first compound max 1 µM, 7x7, partner max 10 µM)	0.244	0.543	0.759	0.553	0.857	0.386	0.305	0.377	0.744	0.501	0.573	0.721	0.932	0.447	0.302	0.842	0.486	0.654	0.319	0.364
CC1(C)CCC(CN2CCN(c3ccc(C(=O)NS(=O)(=O)c4ccc(NCC5CCOCC5)c([N+](=O)[O-])c4)c(Oc4cnc5[nH]ccc5c4)c3)CC2)=C(c2ccc(Cl)cc2)C1 [Venetoclax] + C[C@@H]1COCCN1C2=NC(=NC(=C2)C3(CC3)[S@](=N)(=O)C)C4=C5C=CNC5=NC=C4 [AZD6738] (first compound max 1 µM, 7x7, partner max 10 µM)	0.319	0.532	1	0.865	0.99	0.514	0.428	0.882	0.623	0.768	0.702	0.716	0.961	0.792	0.53	0.694	0.793	0.708	0.399	0.689
CC1(C)CCC(CN2CCN(c3ccc(C(=O)NS(=O)(=O)c4ccc(NCC5CCOCC5)c([N+](=O)[O-])c4)c(Oc4cnc5[nH]ccc5c4)c3)CC2)=C(c2ccc(Cl)cc2)C1 [Venetoclax] + C[C@@H](Nc1cc(F)cc(F)c1)c1cc(C(=O)N(C)C)cc2c(=O)cc(N3CCOCC3)oc12 [AZD8186] (first compound max 1 µM, 7x7, partner max 3 µM)	0.194	0.11	0.302	0.746	0.612	0.632	0.188	0.0196	0.399	0.15	0.531	0.471	0.724	0.133	0.244	0.768	0.46	0.616	0.375	0.113
CC1(C)CCC(CN2CCN(c3ccc(C(=O)NS(=O)(=O)c4ccc(NCC5CCOCC5)c([N+](=O)[O-])c4)c(Oc4cnc5[nH]ccc5c4)c3)CC2)=C(c2ccc(Cl)cc2)C1 [Venetoclax] + Cc1cc2ncnn2cc1Nc1ncc2c(n1)n(C1CCOCC1)c(=O)n2C [AZD7648] (first compound max 1 µM, 7x7, partner max 10 µM)	0.219	0.164	0.417	0.764	0.405	0.381	0.293	0.205	0.279	0.291	0.601	0.436	0.559	0.133	0.332	0.671	0.556	0.578	0.274	0.209
CC1(C)CCC(CN2CCN(c3ccc(C(=O)NS(=O)(=O)c4ccc(NCC5CCOCC5)c([N+](=O)[O-])c4)c(Oc4cnc5[nH]ccc5c4)c3)CC2)=C(c2ccc(Cl)cc2)C1 [Venetoclax] + Cn1cnc2c(F)c(Nc3ccc(Br)cc3Cl)c(C(=O)NOCCO)cc21 [Selumetinib] (first compound max 1 µM, 7x7, partner max 3 µM)	0.364	0.196	0.216	0.536	0.395	0.433	0.143	0.271	0.158	0.141	0.436	0.611	0.369	0.124	0.398	0.635	0.879	0.485	0.169	0.245

Source: the supplement of paper PMC11061612
